The nature of data set [1]: Human plasma protein binding (equilibrium dialysis). In kind it is in vitro ADME. Particulars: dialysis 18 hours. The procedure:
The automated equilibrium dialysis assay in human plasma uses the RED (Rapid Equilibrium Dialysis) Device and sample handling. The assay generally runs over two to three days including delivery of results. After dialysis for 18 hours, plasma and buffer samples are prepared for analysis by liquid chromatography and mass spectrometry. Samples are generally tested in singlicates and quantified by LC/MSMS by using a 7-point calibration curve in plasma. The compounds are pooled together in plasma pools up to 10 compounds. Three reference compounds are used in each run, Propranolol, Metoprolol and Warfarin. Warfarin is used as a control in each pool and Propranolol and Metoprolol are placed randomly in each run. An in-house Excel macro is used for preparation of files for the robot and the mass spectrometer and is also used for the calculations of fraction unbound (fu %) in plasma.
(In general: In equilibrium dialysis free small molecules cross a membrane that holds back macromolecules.)

The nature of data set [2]: log D (shake flask, 1-octanol/aqueous buffer). In kind it is physicochemical. An excerpt:
The lipophilicity of a drug is an important physical property which may influence many biological and metabolic properties of a compound, for example the absorption, distribution, metabolism, excretion and toxicity profiles of a compound. The distribution coefficient between 1-octanol and aqueous buffer, Log DO/W, at pH 7.4, is the most commonly used measurement of the lipophilicity of a compound. The current method for measurement of Log DO/W is based on the traditional shake flask technique, but with the modification of measuring compounds in mixtures of ten at a time using UPLC with quantitative mass spectrometry (MS) as a method to measure the relative octanol and aqueous concentrations. […] An additional QC sample Caffeine, with low Log D, are used and randomly placed in all runs. The method has been thoroughly validated against the previous shake flask methodologies.

A short description of data set [3]: Thermodynamic solubility (shake-flask). The class given is physicochemical. Particulars: aqueous phosphate buffer pH 7.4, 24 hours. As to the method: The thermodynamic solubility of a research compound is measured under standard conditions. It is a shake-flask approach that uses 10 mM DMSO solutions which are supplied from the Compound Managements liquid store and is a high throughput method. The dried compounds are equilibrated in an aqueous phosphate buffer (pH 7.4) for 24 hours at 25° C., the portion with the dissolved compound is then separated from the remains. The solutions are analyzed and quantified using UPLC/MS/MS, QC-samples are incorporated in each assay-run to ensure the quality of the assay.

Data set [4] deals with recombinant human Estrogen Receptor alpha ligand binding domain (ER alpha-LBD (GST)) (Homo sapiens (Human), UniProt P03372). The data set can be described thus: ERα binding assay (LanthaScreen TR-FRET competition). To be noted: TR-FRET, displacement of Fluormone ES2. As to the method: The ability of compounds to bind to isolated Estrogen Receptor Alpha Ligand binding domain (ER alpha-LBD (GST)) was assessed in competition assays using a LanthaScreen™ Time-Resolved Fluorescence Resonance Energy Transfer (TR-FRET) detection end-point. […] The assay principle is that ER alpha-LBD (GST) is added to a fluorescent ligand to form a receptor/fluorophore complex. A terbium-labelled anti-GST antibody (Product code PV3551) is used to indirectly label the receptor by binding to its GST tag, and competitive binding is detected by a test compound's ability to displace the fluorescent ligand, resulting in a loss of TR-FRET signal between the Tb-anti-GST antibody and the tracer. The assay was performed as follows with all reagent additions carried out using the Beckman Coulter BioRAPTR FRD microfluidic workstation: • 1. Acoustic dispense 120 nL of the test compound into a black low volume 384 well assay plates. • 2. Prepare 1×ER alpha-LBD/Tb-antiGST Ab in ES2 screening buffer and incubate for 15 minutes. • 3. Dispense 6 μL of the 1×[…]/Tb-anti-GST Ab reagent into each well of the assay plate followed by 6 μL of Fluorophore reagent into each well of the assay plate • 4. Cover the assay plate to protect the reagents from light and evaporation, and incubate at room temperature for 4 hours. • 5.
Chain of recombinant human Estrogen Receptor alpha ligand binding domain (ER alpha-LBD (GST)) (P03372 307-554): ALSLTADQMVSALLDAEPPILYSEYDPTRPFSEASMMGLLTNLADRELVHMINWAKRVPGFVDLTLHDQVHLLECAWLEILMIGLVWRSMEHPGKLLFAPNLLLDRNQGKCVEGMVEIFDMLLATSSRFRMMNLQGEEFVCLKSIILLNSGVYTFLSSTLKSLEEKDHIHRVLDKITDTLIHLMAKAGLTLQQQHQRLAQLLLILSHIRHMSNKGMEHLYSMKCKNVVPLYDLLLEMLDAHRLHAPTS
TR-FRET dose response data obtained with each compound was exported into a suitable software package (such as Origin or Genedata) to perform curve fitting analysis. Competitive ER alpha binding was expressed as an IC50 value.
For orientation: In TR-FRET formats the signal depends on donor and acceptor labels being close together.

Data set [5] addresses Estrogen Receptor (ERα) in MCF-7 cells (Homo sapiens (Human), UniProt P03372). The data set can be described thus: MCF-7 ER down-regulation assay (immuno-fluorescence). In kind it is cell-based. Particulars: read-out: ER down regulation IC50 value. As to the method: The Echo uses acoustic technology to perform direct microplate-to-microplate transfers of DMSO compound solutions to assay plates. […] Cells were fixed at room temperature for 20 mins before being washed two times with 250 μL PBS/Proclin (PBS with a Biocide preservative) using a BioTek platewasher, 40 μL of PBS/Proclin was then added to all wells and the plates stored at 4° C. The fixing method described above was carried out on the Integrated Echo 2 workcell. Immunostaining was performed using an automated AutoElisa workcell. […] The plates were incubated overnight at 4° C. […] The mean total intensity was normalized for cell number giving the total intensity per cell. The data was exported into a suitable software package (such as Origin) to perform curve fitting analysis.

[6] abbreviates: 1-octanol/aqueous buffer, pH 7.4, pH 7.4, 1-octanol/aqueous buffer.
Where [7] appears, read: aqueous phosphate buffer, 25 °C, pH 7.4, aqueous buffer, thermodynamic from solid.
Setting [8] is: pH 7.4, 1-octanol/aqueous buffer.

SMILES strings stand for the structures. In brackets after ≈: the same amount, converted by molar mass.

Usually logD stands for the decadic logarithm of the distribution of all forms, ionised or not, between an organic phase and buffer at a given pH. Usually solubility stands for the concentration that dissolves in the medium under given conditions. High values mean a readily soluble substance, low ones a poorly soluble substance. Usually IC50 stands for the midpoint of a concentration-inhibition curve.

Chain of Estrogen Receptor (ERα) in MCF-7 cells (P03372 whole entry): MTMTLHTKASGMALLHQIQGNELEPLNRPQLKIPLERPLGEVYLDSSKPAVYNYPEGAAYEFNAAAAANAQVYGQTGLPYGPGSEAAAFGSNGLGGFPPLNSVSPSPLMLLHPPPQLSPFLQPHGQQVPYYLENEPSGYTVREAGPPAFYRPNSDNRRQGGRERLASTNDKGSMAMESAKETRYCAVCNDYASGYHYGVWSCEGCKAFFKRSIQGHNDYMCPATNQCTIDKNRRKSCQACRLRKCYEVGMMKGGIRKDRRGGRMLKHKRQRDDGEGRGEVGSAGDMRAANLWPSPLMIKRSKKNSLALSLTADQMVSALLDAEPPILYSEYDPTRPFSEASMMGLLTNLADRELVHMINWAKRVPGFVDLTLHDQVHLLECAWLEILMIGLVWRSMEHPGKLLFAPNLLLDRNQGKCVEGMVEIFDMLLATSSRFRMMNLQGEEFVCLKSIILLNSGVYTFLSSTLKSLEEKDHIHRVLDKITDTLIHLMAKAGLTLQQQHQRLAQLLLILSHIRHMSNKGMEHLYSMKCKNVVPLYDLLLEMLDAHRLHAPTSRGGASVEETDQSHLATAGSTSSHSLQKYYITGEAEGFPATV

For `COC[C@](C)(F)CN1[C@H](c2ccc(NC3CN(CCCF)C3)cc2OC)c2ccc3[nH]ncc3c2C[C@H]1C` (single isomer, unassigned) [Example 14], the “Human plasma protein binding (% free)” value in data set [1] was determined as 16 % free. The molecule further came in with a logD in data set [2] (setting [6]) of 2.6. Moreover, the solubility at 24 h in data set [3] (setting [7]) turned out to be 897 µM (≈ 473 µg/mL).

As to `COCC(C)(F)CN1[C@H](c2ccc(NC3CN(CCCF)C3)cc2OC)c2ccc3[nH]ncc3c2C[C@H]1C` (stereo partly drawn) [Example 4, N-(4-((6S,8R)-7-(2-fluoro-3-methoxy-2-methylpropyl)-8-methyl-6,7,8,9-tetrahydro-3H-pyrazolo[4,3-f]isoquinolin-6-yl)-3-methoxyphenyl)-1-(3-fluoropropyl)azetidin-3-amine], the “Human plasma protein binding (% free)” value in data set [1] stood at 21 % free. This molecule yielded a logD in data set [2] (setting [6]) of 2.7. This molecule also gave a solubility at 24 h in data set [3] (setting [7]) of 991 µM (≈ 523 µg/mL).

On to `COC[C@](C)(F)CN1[C@H](c2ccc(NC3CN(CCCF)C3)cc2OC)c2ccc3[nH]ncc3c2C[C@H]1C` (single isomer, unassigned) [Example 15], for which the “Human plasma protein binding (% free)” value in data set [1] is given as 34 % free. In addition, the “LogD pH 7.4” value in data set [2] (setting [8]) stood at 2.5. In data set [3] (25° C.), this molecule came in with a solubility at 24 h of 821 µM (≈ 433 µg/mL).

For the molecule `COC[C@](C)(F)CN1[C@H](c2ccc(OC3CN(CCCF)C3)cc2OC)c2ccc3[nH]ncc3c2C[C@H]1C` (single isomer, unassigned) [Example 13], in data set [1], the “Human plasma protein binding (% free)” value is on record as 6.4 % free. The “LogD pH 7.4” value in data set [2] (setting [8]) turned out to be 4. Besides, the solubility at 24 h in data set [3] (25° C.) was determined as 78 µM (≈ 41.2 µg/mL).

Regarding `C[C@@H]1Cc2c(ccc3[nH]ncc23)[C@@H](c2ccc(NC3CN(CCCF)C3)cn2)N1CC(C)(C)F` [Example 63, 6-((6S,8R)-7-(2-fluoro-2-methylpropyl)-8-methyl-6,7,8,9-tetrahydro-3H-pyrazolo[4,3-f]isoquinolin-6-yl)-N-(1-(3-fluoropropyl)azetidin-3-yl)pyridin-3-amine], the “Human plasma protein binding (% free)” value in data set [1] came out at 10 % free. In addition, the pH-dependent lipophilicity (logD) in data set [2] (setting [8]) stood at 3.2. Also, in data set [3] (setting [7]), the solubility at 24 h is 870 µM (≈ 408 µg/mL).

For `COC[C@](C)(F)CN1[C@H](c2ccc(OC3CN(CCCF)C3)cc2OC)c2ccc3[nH]ncc3c2C[C@H]1C` (single isomer, unassigned) [Example 12], the “Human plasma protein binding (% free)” value in data set [1] is recorded as 2.7 % free. Also, the logD in data set [2] (setting [6]) came to 3.9. This molecule also yielded a solubility at 24 h in data set [3] (setting [7]) of 77 µM (≈ 40.7 µg/mL).

Turning to `FCCCN1CC(Nc2ccc([C@@H]3c4ccc5[nH]ncc5c4C[C@@H](C(F)F)N3CC(F)F)nc2)C1` [Example 51, 6-((6S,8S)-7-(2,2-difluoroethyl)-8-(difluoromethyl)-6,7,8,9-tetrahydro-3H-pyrazolo[4,3-f]isoquinolin-6-yl)-N-(1-(3-fluoropropyl)azetidin-3-yl)pyridin-3-amine], the “Human plasma protein binding (% free)” value in data set [1] came out at 28 % free. The molecule also showed a logD in data set [2] (setting [8]) of 2.7. The solubility at 24 h in data set [3] (setting [7]) is greater than 1000 µM.

Consider `C[C@@H]1Cc2c(ccc3[nH]ncc23)[C@@H](c2c(F)cc(NC3CN(CCCF)C3)cc2F)N1CC(C)(F)CO` (single isomer, unassigned) [Example 24], for which the IC50 in data set [4] was found to be 10 nM. The DC50 in data set [5] worked out at 0.21 nM.

For the molecule `COc1cc(NC2CN(CCCF)C2)ccc1[C@@H]1c2ccc3[nH]ncc3c2C[C@@H](C)N1CC(C)F` (single isomer, unassigned) [Example 67], in data set [1], the “Human plasma protein binding (% free)” value was 19 % free. The same molecule gave a logD in data set [2] (setting [6]) of 2.7. Besides, the solubility at 24 h in data set [3] (setting [7]) amounted to 914 µM (≈ 442 µg/mL).

In the case of `COc1cc(NC2CN(CCCF)C2)ccc1[C@@H]1c2ccc3[nH]ncc3c2C[C@@H](C)N1CC(C)F` (single isomer, unassigned) [Example 68], in data set [1], the “Human plasma protein binding (% free)” value is listed as 37 % free. Further, the “LogD pH 7.4” value in data set [2] (setting [8]) came out at 2.4. In addition, in data set [3] (25° C.), the solubility at 24 h was 561 µM (≈ 271 µg/mL).

In data set [2] (setting [8]), `C[C@@H]1Cc2c(ccc3[nH]ncc23)[C@@H](c2ncc(NC3CN(CCCF)C3)cc2F)N1CC(F)(F)CF` [Example 71, 5-fluoro-N-(1-(3-fluoropropyl)azetidin-3-yl)-6-((6S,8R)-8-methyl-7-(2,2,3-trifluoropropyl)-6,7,8,9-tetrahydro-3H-pyrazolo[4,3-f]isoquinolin-6-yl)pyridin-3-amine] gave a logD of 3.2. In addition, the solubility at 24 h in data set [3] (setting [7]) amounted to 666 µM (≈ 339 µg/mL).

As to `C[C@@H]1Cc2c(ccc3[nH]ncc23)[C@@H](c2ccc(NC3CN(CCCF)C3)cn2)N1CC(C)(F)F` [Example 70, 6-((6S,8R)-7-(2,2-difluoropropyl)-8-methyl-6,7,8,9-tetrahydro-3H-pyrazolo[4,3-f]isoquinolin-6-yl)-N-(1-(3-fluoropropyl)azetidin-3-yl)pyridin-3-amine], the “Human plasma protein binding (% free)” value in data set [1] is given as 24 % free. This molecule came in with a pH-dependent lipophilicity (logD) in data set [2] (setting [8]) of 2.9. Moreover, in data set [3] (setting [7]), the solubility at 24 h is 857 µM (≈ 405 µg/mL).

`C[C@@H]1Cc2c(ccc3[nH]ncc23)[C@@H](c2ccc(NC3CN(CCCF)C3)nc2)N1CC1(F)CC1` [Example 54, 5-((6S,8R)-7-((1-fluorocyclopropyl)methyl)-8-methyl-6,7,8,9-tetrahydro-3H-pyrazolo[4,3-f]isoquinolin-6-yl)-N-(1-(3-fluoropropyl)azetidin-3-yl)pyridin-2-amine]: the “Human plasma protein binding (% free)” value in data set [1] is on record as 57 % free. The molecule also had a logD in data set [2] (setting [6]) of 1.4. This molecule had a solubility at 24 h in data set [3] (setting [7]) greater than 1000 µM.

On to `CC(F)CN1[C@H](c2ccc(NC3CN(CCCF)C3)cn2)c2ccc3[nH]ncc3c2C[C@H]1C` (single isomer, unassigned) [Example 66], for which the “LogD pH 7.4” value in data set [2] (setting [8]) was 2.3. The same molecule yielded a solubility at 24 h in data set [3] (25° C.) of 931 µM (≈ 423 µg/mL).

On to `COc1cc(NC2CN(CCCF)C2)cnc1[C@@H]1c2ccc3[nH]ncc3c2C[C@@H](C)N1CC(F)(F)F` [Example 37, N-(1-(3-fluoropropyl)azetidin-3-yl)-5-methoxy-6-((6S,8R)-8-methyl-7-(2,2,2-trifluoroethyl)-6,7,8,9-tetrahydro-3H-pyrazolo[4,3-f]isoquinolin-6-yl)pyridin-3-amine], for which the “Human plasma protein binding (% free)” value in data set [1] is 25 % free. For the same molecule, the logD in data set [2] (setting [6]) amounted to 2.6. For the same molecule, the solubility at 24 h in data set [3] (setting [7]) amounted to 961 µM (≈ 487 µg/mL).

`CC1(C)Cc2c(ccc3[nH]ncc23)[C@@H](c2ccc(NC3CN(CCCF)C3)cn2)N1CC(F)(F)F` [Example 72, (S)-6-(8,8-dimethyl-7-(2,2,2-trifluoroethyl)-6,7,8,9-tetrahydro-3H-pyrazolo[4,3-f]isoquinolin-6-yl)-N-(1-(3-fluoropropyl)azetidin-3-yl)pyridin-3-amine]: in data set [1], the “Human plasma protein binding (% free)” value is recorded as 14 % free. The molecule further yielded a pH-dependent lipophilicity (logD) in data set [2] (setting [8]) of 3.3. The same molecule showed a solubility at 24 h in data set [3] (setting [7]) of 738 µM (≈ 362 µg/mL).

Molecule `CC(F)CN1[C@H](c2ccc(NC3CN(CCCF)C3)cn2)c2ccc3[nH]ncc3c2C[C@H]1C` (single isomer, unassigned) [Example 65] showed a logD in data set [2] (setting [6]) of 2.4. Moreover, the solubility at 24 h in data set [3] (setting [7]) came out at 790 µM (≈ 359 µg/mL).
